From patent US11535621B2, “Heterobicyclic amides as inhibitors of CD38” (Ribon Therapeutics, Inc., priority 2019, dated 2022)
pIC50: −log10 of the molar value.

Each compound was assayed against Human CD38 (Homo sapiens (Human), UniProt P28907) (assay: CD38 enzyme assay). Details: 2 nM CD38, NAD+ substrate, absorbance at 405 nm.
Type: biochemical
Excerpt: [formula] where SUBcmpd is the subtracted value for the individual compound treated well, SUBmin is the average of the subtracted values of the 4-(((1r,4r)-4-(2-methoxyethoxy)cyclohexyl)amino)-1-methyl-6-(thiazol-5-yl)quinolin-2(1H)-one positive control wells and SUBmax is the average of the subtracted values of the DMSO negative control wells.
The % inhibition values were plotted as a function of compound concentration and the following 4-parameter fit was applied to derive the IC50 values:
[formula] where top and bottom are normally allowed to float, but may be fixed at 100 or 0 respectively in a 3-parameter fit. The Hill Coefficient is normally allowed to float but may also be fixed at 1 in a 3-parameter fit. Y is the % inhibition and X is the compound concentration.

Human CD38, sequence (P28907 whole entry): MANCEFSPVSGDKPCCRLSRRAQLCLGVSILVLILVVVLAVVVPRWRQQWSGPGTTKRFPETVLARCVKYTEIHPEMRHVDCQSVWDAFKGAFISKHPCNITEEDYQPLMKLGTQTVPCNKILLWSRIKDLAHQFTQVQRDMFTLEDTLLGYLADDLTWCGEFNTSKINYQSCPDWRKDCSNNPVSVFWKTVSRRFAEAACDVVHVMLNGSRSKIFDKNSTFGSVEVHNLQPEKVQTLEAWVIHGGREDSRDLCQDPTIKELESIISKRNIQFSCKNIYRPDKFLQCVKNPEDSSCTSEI

Row | pIC50 | SMILES
1 | 7.00 to 8.00 | N#CC1CN([C@H]2CC[C@H](NC(=O)c3nc(-n4ccnc4)cc4cn[nH]c34)CC2)C1 [Example 269, N-((1r,4r)-4-(3-cyanoazetidin-1-yl)cyclohexyl)-5-(1H-imidazol-1-yl)-1H-pyrazolo[3,4-c]pyridine-7-carboxamide]
2 | 7.00 to 8.00 | O=C(NCc1c(F)cccc1C(F)(F)F)c1cc(-n2ccnc2)nc2cc[nH]c12 [Example 44, N-(2-Fluoro-6-(trifluoromethyl)benzyl)-5-(1H-imidazol-1-yl)-1H-pyrrolo[3,2-b]pyridine-7-carboxamide]
3 | 7.00 to 8.00 | Cc1cc2cc(-c3cncs3)cc(C(=O)NCc3c(F)cccc3C(F)(F)F)c2[nH]1 [Example 11, N-(2-Fluoro-6-(trifluoromethyl)benzyl)-2-methyl-5-(thiazol-5-yl)-1H-indole-7-carboxamide]
4 | > 8.00 | COCn1cc(NC(=O)c2nc(-n3ccnc3)nc3cc[nH]c23)cn1 [Example 132]
5 | < 6.00 | O=C(NC1CCNCC1)c1nc(-n2ccnc2)nc2cc[nH]c12 [Example 54, 2-(1H-Imidazol-1-yl)-N-(piperidin-4-yl)-5H-pyrrolo[3,2-d]pyrimidine-4-carboxamide]
6 | 7.00 to 8.00 | COCCO[C@H]1CC[C@@H](NC(=O)c2nc(-n3ccnc3)nc3cc[nH]c23)CC1 [Example 69, 2-(1H-Imidazol-1-yl)-N-((1s,4s)-4-(2-methoxyethoxy)cyclohexyl)-5H-pyrrolo[3,2-d]pyrimidine-4-carboxamide]
7 | > 8.00 | COc1ccc(NC(=O)c2nc(-n3ccnc3)nc3cc[nH]c23)cn1 [Example 85, 2-(1H-Imidazol-1-yl)-N-(6-methoxypyridin-3-yl)-5H-pyrrolo[3,2-d]pyrimidine-4-carboxamide]
8 | > 8.00 | N#Cc1ccc(NC(=O)c2nc(-n3ccnc3)nc3cc[nH]c23)cc1 [Example 130]
9 | 7.00 to 8.00 | CNCCO[C@H]1CC[C@H](NC(=O)c2nc(-n3ccnc3)nc3cc[nH]c23)CC1 [Example 71, 2-(1H-Imidazol-1-yl)-N-((1r,4r)-4-(2-(methylamino)ethoxy)cyclohexyl)-5H-pyrrolo[3,2-d]pyrimidine-4-carboxamide]
10 | 6.00 to 7.00 | O=C(NC1CCNC1)c1nc(-n2ccnc2)nc2cc[nH]c12 (stereo not drawn) [Example 73, 2-(1H-Imidazol-1-yl)-N-(pyrrolidin-3-yl)-5H-pyrrolo[3,2-d]pyrimidine-4-carboxamide]
11 | 7.00 to 8.00 | O=C(N[C@H]1CC[C@H](NCCC(F)(F)F)CC1)c1nc(-n2ccnc2)nc2cc[nH]c12 [Example 103, 2-(1H-imidazol-1-yl)-N-((1r,4r)-4-((3,3,3-trifluoropropyl)amino)cyclohexyl)-5H-pyrrolo[3,2-d]pyrimidine-4-carboxamide]
12 | 7.00 to 8.00 | COCCO[C@H]1CC[C@H](NC(=O)c2cc(-n3ccnc3)nc3ccsc23)CC1 [Example 24, 5-(1H-Imidazol-1-yl)-N-((1r,4r)-4-(2-methoxyethoxy)cyclohexyl)thieno[3,2-b]pyridine-7-carboxamide]
13 | 7.00 to 8.00 | Cn1cnc(NC(=O)c2nc(-n3ccnc3)nc3cc[nH]c23)c1 [Example 95, 2-(1H-Imidazol-1-yl)-N-(1-methyl-1H-imidazol-4-yl)-5H-pyrrolo[3,2-d]pyrimidine-4-carboxamide]
14 | > 8.00 | O=C(NC1CCC(F)(F)CC1)c1nc(-n2ccnc2)nc2ccsc12 [Example 149]
15 | 7.00 to 8.00 | CC(C)(O)[C@H]1C[C@H](NC(=O)c2nc(-n3ccnc3)nc3cn[nH]c23)C1 [Example 265, N-((1r,3r)-3-(2-hydroxypropan-2-yl)cyclobutyl)-5-(1H-imidazol-1-yl)-1H-pyrazolo[4,3-d]pyrimidine-7-carboxamide]
16 | 6.00 to 7.00 | O=C(NCc1c(F)cccc1C(F)(F)F)c1cc(-c2cncs2)cc2nc[nH]c12 [Example 3, N-[[2-Fluoro-6-(trifluoromethyl)phenyl]methyl]-6-thiazol-5-yl-3H-benzimidazole-4-carboxamide]
17 | 7.00 to 8.00 | CNC(=O)C[C@H]1CC[C@H](NC(=O)c2nc(-n3ccnc3)cc3cn[nH]c23)CC1 [Example 199, 5-(1H-imidazol-1-yl)-N-((1r,4r)-4-(2-(methylamino)-2-oxoethyl)cyclohexyl)-1H-pyrazolo[3,4-c]pyridine-7-carboxamide]
18 | 7.00 to 8.00 | COCCO[C@H]1CC[C@H](NC(=O)c2nc(-n3ccnc3)nc3cc(C)[nH]c23)CC1 [Example 108, 2-(1H-imidazol-1-yl)-N-((1r,4r)-4-(2-methoxyethoxy)cyclohexyl)-6-methyl-5H-pyrrolo[3,2-d]pyrimidine-4-carboxamide]
19 | < 6.00 | COCCO[C@H]1CC[C@H](NC(=O)c2nc(-c3cncs3)cc3nc[nH]c23)CC1 [Example 47, N-((1r,4r)-4-(2-Methoxyethoxy)cyclohexyl)-6-(thiazol-5-yl)-3H-imidazo[4,5-c]pyridine-4-carboxamide]
20 | 6.00 to 7.00 | COCCO[C@H]1CC[C@H](NC(=O)c2cc(-n3ccnc3)cc3cc(C)[nH]c23)CC1 [Example 9, 5-(1H-Imidazol-1-yl)-N-((1r,4r)-4-(2-methoxyethoxy)cyclohexyl)-2-methyl-1H-indole-7-carboxamide]
21 | 7.00 to 8.00 | COCCO[C@H]1CCC[C@H](NC(=O)c2nc(-n3ccnc3)nc3cc[nH]c23)C1 [Example 124a, 2-(1H-imidazol-1-yl)-N-((1S,3S)-3-(2-methoxyethoxy)cyclohexyl)-5H-pyrrolo[3,2-d]pyrimidine-4-carboxamide]
22 | 7.00 to 8.00 | O=C(N[C@H]1CC[C@H](N2CCOCC2)CC1)c1nc(-n2ccnc2)nc2cc[nH]c12 [Example 155]
23 | > 8.00 | O=C(N[C@H]1CC[C@H](C2(O)CC2)CC1)c1nc(-n2ccnc2)nc2cn[nH]c12 [Example 238, N-((1r,4r)-4-(1-hydroxycyclopropyl)cyclohexyl)-5-(1H-imidazol-1-yl)-1H-pyrazolo[4,3-d]pyrimidine-7-carboxamide]
24 | > 8.00 | O=C(Nc1ccc(Cl)nc1)c1nc(-n2ccnc2)nc2cc[nH]c12 [Example 137]
25 | > 8.00 | O=C(N[C@H]1CC[C@H](NCC(F)F)CC1)c1nc(-n2ccnc2)cc2ccsc12 [Example 261, N-((1r,4r)-4-((2,2-difluoroethyl)amino)cyclohexyl)-5-(1H-imidazol-1-yl)thieno[2,3-c]pyridine-7-carboxamide]
26 | > 8.00 | O=C(NC1CCC(F)(F)CC1)c1nc(-n2ccnc2)nc2cn[nH]c12 [Example 159]
27 | 6.00 to 7.00 | CC(C)(N[C@H]1CC[C@@H](NC(=O)c2nc(-n3ccnc3)nc3cn[nH]c23)CC1)C(F)(F)F [Example 277, 5-(1H-imidazol-1-yl)-N-((1s,4s)-4-((1,1,1-trifluoro-2-methylpropan-2-yl)amino)cyclohexyl)-1H-pyrazolo[4,3-d]pyrimidine-7-carboxamide]
28 | < 6.00 | O=C(NCc1c(F)cccc1C(F)(F)F)c1cc(-n2ccnc2)cc2nc[nH]c12 [Example 2, N-(2-Fluoro-6-(trifluoromethyl)benzyl)-5-(1H-imidazol-1-yl)-1H-benzo[d]imidazole-7-carboxamide]
29 | 7.00 to 8.00 | COCCO[C@H]1CC[C@H](NC(=O)c2nc(-n3cncc3C)nc3cc[nH]c23)CC1 [Example 36, N-((1r,4r)-4-(2-Methoxyethoxy)cyclohexyl)-2-(5-methyl-1H-imidazol-1-yl)-5H-pyrrolo[3,2-d]pyrimidine-4-carboxamide]
30 | 7.00 to 8.00 | COCCOc1ncc(NC(=O)c2nc(-n3ccnc3)nc3cc[nH]c23)cn1 [Example 165]
